The values below come from article PMC12298876, “Angiotensin-Converting Enzyme Inhibitory Activity of Selected Phenolic Acids, Flavonoids, Their O-Glucosides, and Low-Molecular-Weight Phenolic Metabolites in Relation to Their Oxidation Potentials” (Metabolites, 2025).

Series [1] in a line: First anodic oxidation potential by differential pulse voltammetry (DPV). The following applies: DPV, first anodic peak, 0.25 mM standard in 0.1 M Britton-Robinson buffer pH 6.0 in 80% methanol, glassy carbon vs Ag/AgCl, 100 mV/s. The format is physicochemical. On the procedure: A potentiostat/galvanostat G 750 (Gamry Instruments, Warminster, USA) was used for voltametric experiments. A conventional three-electrode system: a 3 mm diameter glassy carbon working electrode (BAS MF-2012), an Ag/AgCl electrode as a reference electrode, and a platinum as counter electrode, was used in the study. Differential pulse voltametric experiments were performed with phenolic acids and flavonoids prepared in a 1:1 (v/v) mixture of 500 µM standard solution and […] Britton-Robinson (B-R) buffer (pH 6.0 in 80% methanol), which also served as a supporting electrolyte. The voltametric experiments were performed at room temperature using an electrochemical cell (volume 200 µL), to which the analyzed standard solution, mixed previously with the buffer solution, was introduced. The differential pulse voltammograms were acquired in the range of −100 to 1300 mV at a scanning rate of 100 mV/s. Before use, the surface of the glassy carbon electrode was carefully polished with 0.05 µm alumina paste, ultrasonically rinsed in deionized water, and then washed with methanol. This procedure was repeated after each cycle. For test purposes, the first anodic oxidation potential was recorded (mV).

For series [2], the system named is formation of advanced glycation end products. On the set-up: method as in PMID 27709826. As to conditions: cited from earlier work.
The target in series [3] is T1, Angiotensin-converting enzymes (ACE) from porcine kidneys (EC 3.4.15.1) (Sus scrofa, UniProt F1RRW5).
T1 construct: Angiotensin-converting enzymes (ACE) from porcine kidneys (EC 3.4.15.1) were purchased from Sigma-Aldrich; purchased Sigma-Aldrich (St. Louis, MO, USA); host or cells: porcine kidneys (tissue-derived enzyme)
T1 sequence (F1RRW5 34-1309): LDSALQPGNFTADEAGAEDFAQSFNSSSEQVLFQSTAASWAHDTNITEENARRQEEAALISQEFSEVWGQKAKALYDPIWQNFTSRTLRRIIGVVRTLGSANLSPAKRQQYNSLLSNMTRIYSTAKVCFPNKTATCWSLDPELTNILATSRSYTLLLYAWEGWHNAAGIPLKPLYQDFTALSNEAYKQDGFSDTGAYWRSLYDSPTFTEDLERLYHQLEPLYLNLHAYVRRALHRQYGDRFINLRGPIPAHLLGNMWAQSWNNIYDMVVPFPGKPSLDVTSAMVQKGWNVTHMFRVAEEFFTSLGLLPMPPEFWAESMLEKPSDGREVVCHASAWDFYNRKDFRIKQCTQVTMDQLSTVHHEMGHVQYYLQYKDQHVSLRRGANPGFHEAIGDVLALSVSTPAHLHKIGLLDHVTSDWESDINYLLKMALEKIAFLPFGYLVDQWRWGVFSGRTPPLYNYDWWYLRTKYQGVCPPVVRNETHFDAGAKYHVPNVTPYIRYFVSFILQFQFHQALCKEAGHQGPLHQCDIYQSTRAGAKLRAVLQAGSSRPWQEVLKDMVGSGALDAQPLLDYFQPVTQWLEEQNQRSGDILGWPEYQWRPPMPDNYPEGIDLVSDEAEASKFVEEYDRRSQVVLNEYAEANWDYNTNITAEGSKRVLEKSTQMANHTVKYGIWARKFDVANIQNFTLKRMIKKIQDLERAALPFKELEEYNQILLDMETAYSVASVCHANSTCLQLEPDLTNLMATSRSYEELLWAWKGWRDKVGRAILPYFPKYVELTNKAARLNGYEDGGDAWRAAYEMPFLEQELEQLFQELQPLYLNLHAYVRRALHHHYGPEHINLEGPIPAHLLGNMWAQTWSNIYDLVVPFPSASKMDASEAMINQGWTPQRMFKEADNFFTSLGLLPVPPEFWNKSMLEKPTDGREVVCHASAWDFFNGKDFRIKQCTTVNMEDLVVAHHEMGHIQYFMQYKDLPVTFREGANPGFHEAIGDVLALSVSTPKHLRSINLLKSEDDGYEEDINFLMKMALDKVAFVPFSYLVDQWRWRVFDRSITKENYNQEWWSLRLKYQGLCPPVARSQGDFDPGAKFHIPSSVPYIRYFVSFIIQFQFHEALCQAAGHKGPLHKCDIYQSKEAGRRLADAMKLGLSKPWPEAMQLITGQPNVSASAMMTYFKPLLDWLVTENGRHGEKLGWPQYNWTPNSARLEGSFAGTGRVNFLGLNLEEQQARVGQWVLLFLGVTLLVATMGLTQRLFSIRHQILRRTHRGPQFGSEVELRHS
In words: biochemical. The protocol: Angiotensin-converting enzymes (ACE) from porcine kidneys (EC 3.4.15.1) were purchased from Sigma-Aldrich (St. Louis, MO, USA). A three-tris-base buffer was as follows: buffer A: 300 mM Tris-base buffer (pH 8.3) with 2 mM ZnCl2; buffer B: 150 mM Tris-base buffer (pH 8,3); and buffer C: 150 mM Tris-base buffer (pH 8.3) with […] NaCl. The substrate o-aminobenzoylglycyl-p-nitorphenylalanylproline (Abz-Gly-Phe(NO2)-Pro) was obtained from BACHEM (Bubendorf, Switzerland). Standards of phenolic acids, flavonoids, glucosides, and low-molecular-weight phenolic metabolites were obtained from Sigma-Aldrich (St. Louis, MO, USA) and Extrasynthese (Genay, France). Water was purified using the Mili-Q system (Milipore, Bedford, MA, USA).
Stock solutions at 1 mM of selected phenolic acids, flavonoids, their O-glucosides, and low-molecular-weight phenolic metabolites were prepared in 80% methanol. The concentration was confirmed by a UV measurement according to Franke et al.. A wide range of concentrations of each compound was prepared by serial dilutions in deionized water to determine the IC50 value. […] The ACE inhibitory activity was obtained from three repetitions (n = 3) for each concentration.
Angiotensin-converting enzyme (ACE) activity inhibitory assay was performed according to the method of Sentandreu and Toldra. The procedure was based on the hydrolysis of the internally quenched substrate o-aminobenzoylglycyl-p-nitorphenylalanylproline (Abz-Gly-Phe(NO2)-Pro) by the reaction of ACE. The fluorescence generated by the liberation of the product (the o-aminobenzoylglycine group) was read in a microplate multiscan fluorometer. The production of fluorescence was inhibited by the presence of functional compounds with an ACE inhibitory effect. The fluorescence was measured immediately after mixing (0 min) and then after 30 min of reaction at an excitation of 365 nm and an emission of 405 nm. To calculate the % of inhibition of ACE, the following equation was used:Relative ACE activity% = 100 − (ΔRFUsample × 100/ΔRFUnegative control), where ΔRFU = RFU at time 30 – RFU at time 0.

Series [4] concerns ACE. As to conditions: cited from earlier work; for IC50: read-out: IC50 (ACE inhibitory activity).
Series [5] has as its system ACE. Also noted: method as in PMID 23185345. As to conditions: same fluorometric method as this study; read-out: IC50 (ACE inhibition); cited from earlier work.
Where [6] appears, read: porcine kidney ACE, substrate Abz-Gly-Phe(NO2)-Pro, fluorescence after 30 min, mean ± SD, read-out: IC50 Value (ACE inhibitory activity).

SMILES strings stand for the structures. Like-named read-outs stand apart in the source and are kept apart here. Marks after values point to notes of the source that are not given here.

Regarding `O=C(O)Cc1ccc(O)c(O)c1` [3,4-DHPAA, 3,4-dihydroxyphenylacetic acid], the “Anodic Peak Potential Epa” value in series [1] is 432 ± 6 ^g mV. Besides, in series [2], the “inhibitory activity against the formation of advanced glycation end products” value is listed as “strong inhibitory activity”. In addition, the IC50 in series [3] (setting [6]) came out at 0.6728 ± 0.00493 mM.
Consider `O=C(O)/C=C/c1ccc(O)c(O)c1` [Caffeic acid], for which the “Anodic Peak Potential Epa” value in series [1] is 397 ± 8 ^e mV; in series [1] (listed as caffeic acid), 397 mV. The IC50 in series [3] (setting [6]) was 9.11 mM; in series [3] (values of this study restated in mM in the discussion, read-out: IC50 (ACE inhibition)), 9.11 ± 0.06 mM; with ACE [4], 8970 ± 80 µM.
With `O=c1c(O)c(-c2ccc(O)cc2)oc2cc(O)cc(O)c12` [Kaempferol], the 50% inhibitory concentration (IC50) in the series with ACE [5] is 178 µM; in series [3] (setting [6]), 0.132 ± 0.00247 mM. Also, in series [1], the “Anodic Peak Potential Epa” value is 394 ± 4 ^g mV.
As for `O=c1cc(-c2ccc(O)c(O)c2)oc2cc(O)cc(O)c12` [Luteolin], the IC50 is 23 µM with ACE [5] and 0.0771 ± 0.00255 mM in series [3] (setting [6]). The “Anodic Peak Potential Epa” value in series [1] is recorded as 407 ± 5 ^f mV. Also, the “IC50 lower than the value for naringenin” value in series [3] (ACE inhibition) was “fivefold”.
`C[C@@H]1O[C@@H](OC[C@H]2O[C@@H](Oc3c(-c4ccc(O)c(O)c4)oc4cc(O)cc(O)c4c3=O)[C@H](O)[C@@H](O)[C@@H]2O)[C@H](O)[C@H](O)[C@H]1O` [Rutin, quercetin-O-3-rutinoside]: the IC50 was 64 µM in the series with ACE [5] and 0.0593 mM in series [3] (IC50 Value (ACE inhibitory activity), porcine kidney ACE, substrate Abz-Gly-Phe(NO2)-Pro, fluorescence after 30 min, mean ± SD). Further, the “Anodic Peak Potential Epa” value in series [1] is 389 ± 4 ^g mV. For the same compound, the “lower IC50 in relation to the respective aglycone” value in series [3] (ACE inhibition, glycoside vs aglycon) came to 50%.
Take `O=C(CCc1ccc(O)cc1)c1c(O)cc(O)cc1O` [phloretin]: in the series on ACE [4], the “IC50 higher than the IC50 of phloretin 2′-O-glucose” value is on record as 25% and the IC50 was 286.8 ± 2.54 µM.
